Measurements from patent US20130165368A1, “ANTIMICROBIAL COMPOUNDS” (priority 2010, published 2013).
≈ marks a conversion by molar mass, not a printed value. Where two headings read alike, the source gives them in different places.

Experiments:
Type in all cases: cell-based
Candida albicans = test: MIC agar dilution, micro-organism 19 (90028); details: Candida albicans 90028
Outline: (§1)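 Twofold dilutions of compound emulsions in water were set in Isosensitest agar with Brazier's CCEY medium, egg yolk and lysed horse blood. Spots of 1 µL from 0.5 McFarland suspensions diluted 1/15 were incubated aerobically at 37 °C and read at 22 and 48 h. MIC (mmol/L) was the lowest concentration giving <10 colonies.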

Staphylococcus aureus = test: MIC agar dilution, micro-organism 13 (6571); details: Staphylococcus aureus 6571
Outline: as §1

[1] = tested on: Enterococcus faecium (VRE) MB 3137; test: MIC agar dilution, VRE strain 26
Protocol: (§2) Molar equivalent concentrations were used to allow comparison between compounds of differing molecular mass. Due to weighing difficulties, any compound in solid form was melted in a water bath prior to dilution. To make ten-times strength concentrations, which takes into account agar dilution, 0.0352 mmol of each compound was weighed into plastic universal bottles and 4 mL of sterile distilled water (SDW) was added. To produce a homogenous emulsion the universals were vortexed; once achieved the emulsions were serial diluted by adding 2 mL to 2 mL of SDW.
(§3) For every 100 mL of Isosensitest agar (IST) (CM0471; Oxoid, Basingstoke, England), 3.1 g of the IST powder was added to 100 mL SDW (as per manufacturer's instructions) and sterilised for 15 minutes at 121° C. Once sterilised, the molten agar was cooled to 50° C. in a water-bath. Subsequently 4.8 g of CCEY powder (BC2160; Bioconnections, Wetherby, England), also known as Brazier's medium, was added to 100 mL SDW for every 100 mL of agar needed. This was then sterilised for 15 minutes at 121° C. Once sterilised the molten agar was cooled to 50° C. in a water-bath and 4 mL of egg-yolk emulsion (S2073; TCS Biosciences Ltd, Buckingham, United Kingdom) and 1 mL of lysed defibrinated horse blood (HB035; TCS Biosciences Ltd, Buckingham, United Kingdom) were also added for every 100 mL needed. Horse blood lysis is achieved by dilution to half concentration with SDW; when fully lysed the mixture will turn dark red in colour.
(§4) 18 mL agar was added to each universal and then poured into sterile Petri dishes. This step creates a 1/10 dilution resulting in agar plates of the required strength. Control plates for each set of strains were created by adding 18 mL of agar to 2 mL of SDW.
(§5) Suspensions of each bacterial species were prepared with a density equal to that of a 0.5 McFarland standard using a densitometer. All suspensions were made using sterile distilled water and fresh 18-20 hour cultures. As a 0.5 McFarland standard contains 1.5×10^8 CFU/mL and the multipoint inoculators applies 1 μL spots of liquid, each bacterial suspension was diluted 1/15 (20 μL suspension to 280 μL sterile distilled water).
(§6) Bacterial suspensions were prepared from fresh 18-24 hour cultures as previously described. 1 μL of each strain was inoculated onto all 100 agar plates containing a different chemical concentration and the 2 control plates. This was done using a multipoint inoculator which inoculates 20 strains per plate. All plates were incubated for 22 hours at 37° C. in aerobic conditions.
(§7) Each plate was examined for bacterial growth after 22 and 48 hours, with each being incubated in between examinations. A positive result was recorded as growth of ≧10 colonies. A negative result was recorded as growth of <10 colonies as this is equivalent to 99.9% inhibition. The lowest concentration of chemical that inhibited growth was recorded as the MIC. The results are recorded in Table IV below, where the numbers are quoted in mmol/L.
(§8) Given the positive performance of the ethoxylates of lauryl alcohol in reducing the MIC for a number of the micro-organisms tested, further MIC testing of Laureth-1 [C12E1] through to Laureth-8 [C12E8] was conducted on each of the following: • 10 strains of vancomycin-resistant enterococci (VRE)—listed in Table V below; and • 20 strains of methicillin-resistant Staphylococcus aureus (MRSA)—listed in Table VI.
(§9) The alkanol, alkanol derivatives, agar plates, and inocula were all prepared in the same way as described above.
(§10) The plates were examined in the same manner as described above and the results are recorded in Table VII below, where the numbers are quoted in mmol/L.

MRSA EMRSA 15 21698/98 = test: MIC agar dilution, MRSA strain 41; details: Staphylococcus aureus
Protocol: as §2, §3, §4, §5, §6, §7, §8, §9, §10

MRSA EMRSA 16 00036/95 = test: MIC agar dilution, MRSA strain 46; details: Staphylococcus aureus
Protocol: as §2, §3, §4, §5, §6, §7, §8, §9, §10

[2] = tested on: Enterococcus faecium (VRE) NCTC 12952; test: MIC agar dilution, VRE strain 30
Protocol: as §2, §3, §4, §5, §6, §7, §8, §9, §10

MRSA EMRSA 16 03732/95 = test: MIC agar dilution, MRSA strain 45; details: Staphylococcus aureus
Protocol: as §2, §3, §4, §5, §6, §7, §8, §9, §10

MRSA EMRSA 16 18200/95 = test: MIC agar dilution, MRSA strain 48; details: Staphylococcus aureus
Protocol: as §2, §3, §4, §5, §6, §7, §8, §9, §10

[3] = tested on: Enterococcus faecium (VRE) 12185 Clin waste; test: MIC agar dilution, VRE strain 24
Protocol: as §2, §3, §4, §5, §6, §7, §8, §9, §10

[4] = tested on: Enterococcus faecalis (VRE) MB 1969; test: MIC agar dilution, VRE strain 27
Protocol: as §2, §3, §4, §5, §6, §7, §8, §9, §10

[5] = Staphylococcus aureus, 22 h, 22 hrs, read-out: MIC
[6] = Staphylococcus aureus, 48 h, 48 hrs, read-out: MIC

| Structure (SMILES) | MIC (Candida albicans; 22 hrs, read-out: MIC) [µM] | MIC (Candida albicans; 48 hrs, read-out: MIC) [µM] | MIC (Staphylococcus aureus; [5]) [µM] | MIC (Staphylococcus aureus; [6]) [µM] | MIC ([1]; 22 hrs) [µM] | MIC ([1]; 48 hrs) [µM] | MIC (MRSA EMRSA 15 21698/98; 22 hrs) [µM] | MIC (MRSA EMRSA 15 21698/98; 48 hrs) [µM] | MIC (MRSA EMRSA 16 00036/95; 22 hrs) [µM] | MIC (MRSA EMRSA 16 00036/95; 48 hrs) [µM] | MIC ([2]; 22 hrs) [µM] | MIC ([2]; 48 hrs) [µM] | MIC (MRSA EMRSA 16 03732/95; 22 hrs) [µM] | MIC (MRSA EMRSA 16 03732/95; 48 hrs) [µM] | MIC (MRSA EMRSA 16 18200/95; 22 hrs) [µM] | MIC (MRSA EMRSA 16 18200/95; 48 hrs) [µM] | MIC ([3]; 22 hrs) [µM] | MIC ([3]; 48 hrs) [µM] | MIC ([4]; 22 hrs) [µM] | MIC ([4]; 48 hrs) [µM] | further results |
| --- | --- | --- | --- | --- | --- | --- | --- | --- | --- | --- | --- | --- | --- | --- | --- | --- | --- | --- | --- | --- | --- |
| CCCCCCCCCCCCCCCCO [C0, 1-Hexadecanol, reference compound] | > 880 | > 880 | > 880 | > 880 |  |  |  |  |  |  |  |  |  |  |  |  |  |  |  |  |  |
| CCCCCCCCCCCCCOCCOCCOCCOCCOCCOCCO [C13E6, polyoxyethylene (6) tridecyl alcohol] |  |  |  |  |  |  |  |  |  |  |  |  |  |  |  |  |  |  |  |  | MIC (Candida albicans; 22 hrs): >880 µM; MIC (Candida albicans; 48 hrs): >880 µM; MIC (Staphylococcus aureus; 22 hrs): 110 µM (≈ 51.1 µg/mL); MIC (Staphylococcus aureus; 48 hrs): 110 µM (≈ 51.1 µg/mL) |
| CCCCCCCCCCCCOCCO [L1, Ethylene Glycol Monododecyl Ether] | 440 (≈ 101 µg/mL) | 440 (≈ 101 µg/mL) | 220 (≈ 50.7 µg/mL) | 220 (≈ 50.7 µg/mL) | 440 (≈ 101 µg/mL) | 440 (≈ 101 µg/mL) | 220 (≈ 50.7 µg/mL) | 220 (≈ 50.7 µg/mL) | 220 (≈ 50.7 µg/mL) | 220 (≈ 50.7 µg/mL) | 220 (≈ 50.7 µg/mL) | 220 (≈ 50.7 µg/mL) | 220 (≈ 50.7 µg/mL) | 220 (≈ 50.7 µg/mL) | 220 (≈ 50.7 µg/mL) | 220 (≈ 50.7 µg/mL) | 880 (≈ 203 µg/mL) | 880 (≈ 203 µg/mL) | 220 (≈ 50.7 µg/mL) | 220 (≈ 50.7 µg/mL) |  |
| CCCCCCCCCCCCOCCOCCO [L2, Diethylene Glycol Monododecyl Ether] | 220 (≈ 60.4 µg/mL) | 220 (≈ 60.4 µg/mL) | 110 (≈ 30.2 µg/mL) | 110 (≈ 30.2 µg/mL) | > 880 | > 880 | 110 (≈ 30.2 µg/mL) | 110 (≈ 30.2 µg/mL) | 110 (≈ 30.2 µg/mL) | 110 (≈ 30.2 µg/mL) | 440 (≈ 121 µg/mL) | 440 (≈ 121 µg/mL) | 110 (≈ 30.2 µg/mL) | 110 (≈ 30.2 µg/mL) | 110 (≈ 30.2 µg/mL) | 110 (≈ 30.2 µg/mL) | > 880 | > 880 | 220 (≈ 60.4 µg/mL) | 220 (≈ 60.4 µg/mL) |  |
| CCCCCCCCCCCCOCCOCCOCCO [L3, Triethylene Glycol Monododecyl Ether] | 220 (≈ 70.1 µg/mL) | 220 (≈ 70.1 µg/mL) | ≤ 50 | ≤ 50 | 880 (≈ 280 µg/mL) | > 880 | 110 (≈ 35 µg/mL) | 110 (≈ 35 µg/mL) | 55 (≈ 17.5 µg/mL) | 55 (≈ 17.5 µg/mL) | 220 (≈ 70.1 µg/mL) | 220 (≈ 70.1 µg/mL) | 110 (≈ 35 µg/mL) | 110 (≈ 35 µg/mL) | 110 (≈ 35 µg/mL) | 110 (≈ 35 µg/mL) | 880 (≈ 280 µg/mL) | > 880 | 440 (≈ 140 µg/mL) | 440 (≈ 140 µg/mL) |  |
| CCCCCCCCCCCCOCCOCCOCCOCCO [L4, Tetraethylene Glycol Monododecyl Ether] | 440 (≈ 160 µg/mL) | 220 (≈ 79.8 µg/mL) | 110 (≈ 39.9 µg/mL) | 110 (≈ 39.9 µg/mL) | 880 (≈ 319 µg/mL) | > 880 | 55 (≈ 19.9 µg/mL) | 55 (≈ 19.9 µg/mL) | 55 (≈ 19.9 µg/mL) | 55 (≈ 19.9 µg/mL) | 440 (≈ 160 µg/mL) | 440 (≈ 160 µg/mL) | 110 (≈ 39.9 µg/mL) | 110 (≈ 39.9 µg/mL) | 55 (≈ 19.9 µg/mL) | 55 (≈ 19.9 µg/mL) | 220 (≈ 79.8 µg/mL) | 440 (≈ 160 µg/mL) | 220 (≈ 79.8 µg/mL) | 220 (≈ 79.8 µg/mL) |  |
| CCCCCCCCCCCCOCCOCCOCCOCCOCCO [L5, Pentaethylene Glycol Monododecyl Ether] | 440 (≈ 179 µg/mL) | 440 (≈ 179 µg/mL) | 110 (≈ 44.7 µg/mL) | 110 (≈ 44.7 µg/mL) | 440 (≈ 179 µg/mL) | > 880 | 110 (≈ 44.7 µg/mL) | 110 (≈ 44.7 µg/mL) | 110 (≈ 44.7 µg/mL) | 110 (≈ 44.7 µg/mL) | 220 (≈ 89.5 µg/mL) | 220 (≈ 89.5 µg/mL) | 110 (≈ 44.7 µg/mL) | 110 (≈ 44.7 µg/mL) | 110 (≈ 44.7 µg/mL) | 110 (≈ 44.7 µg/mL) | 220 (≈ 89.5 µg/mL) | 220 (≈ 89.5 µg/mL) | 220 (≈ 89.5 µg/mL) | 220 (≈ 89.5 µg/mL) |  |
| CCCCCCCCCCCCOCCOCCOCCOCCOCCOCCO [L6, Hexaethylene Glycol Monododecyl Ether] | > 880 | 880 (≈ 397 µg/mL) | 110 (≈ 49.6 µg/mL) | 110 (≈ 49.6 µg/mL) | 880 (≈ 397 µg/mL) | > 880 | 110 (≈ 49.6 µg/mL) | 110 (≈ 49.6 µg/mL) | 220 (≈ 99.1 µg/mL) | 440 (≈ 198 µg/mL) | > 880 | > 880 | 220 (≈ 99.1 µg/mL) | 220 (≈ 99.1 µg/mL) | 110 (≈ 49.6 µg/mL) | 220 (≈ 99.1 µg/mL) | 880 (≈ 397 µg/mL) | 880 (≈ 397 µg/mL) | > 880 | > 880 |  |
| CCCCCCCCCCCCOCCOCCOCCOCCOCCOCCOCCO [L7, Heptaethylene Glycol Monododecyl Ether] | > 880 | > 880 |  |  | > 880 | > 880 | 440 (≈ 218 µg/mL) | > 440 | 440 (≈ 218 µg/mL) | > 440 | > 880 | > 880 | > 440 | > 440 | 220 (≈ 109 µg/mL) | > 440 | > 880 | > 880 | > 880 | > 880 | MIC (Staphylococcus aureus; 22 hrs, read-out: MIC): 110 µM (≈ 54.4 µg/mL); MIC (Staphylococcus aureus; 48 hrs, read-out: MIC): 110 µM (≈ 54.4 µg/mL) |
| CCCCCCCCCCCCOCCOCCOCCOCCOCCOCCOCCOCCO [L8, Octaethylene Glycol Monododecyl Ether] | > 880 | > 880 | 110 (≈ 59.3 µg/mL) | 110 (≈ 59.3 µg/mL) | > 880 | > 880 | > 440 | > 440 | > 440 | > 440 | > 880 | > 880 | > 440 | > 440 | > 440 | > 440 | > 880 | > 880 | > 880 | > 880 |  |
